Converted amounts (≈) assume the structure as drawn. “Also recorded” adds a separate entry of the source.
Experiments:
[1] = tested on: lymphocytic leukemia P388; conditions: Wani et al. 1973; cited from earlier work
[2] = tested on: cultivated cells of human epidermoid carcinoma of the mouth (KB); test: KB Cell Culture Screen (NCI Protocol 1.600); format: cell-based; conditions: for IC50: Homo sapiens, KB, 72 h, 3 days after drug addition, activity indicated for ED50 ≤30 μg./ml., read-out: ED50 (dose that inhibits growth to 50% of control growth)
Experimental: The KB Cell Culture Screen used in guiding the above-described fractionations was conducted in accordance with the National Cancer Institute (NCI) Protocol 1.600 [Geran et al., Cancer Chemother. Rep., Part 3, 3:17 (1972)] in which the effectiveness of the test compounds against cultivated cells of human epidermoid carcinoma of the mouth was evaluated. The results of this procedure are expressed as the dose that inhibits growth to 50% of control growth by 3 days after drug addition. Such a dose is referred to as ED50 and activity is indicated for ED50 levels of ≤30 μg./ml. The smaller the ED50 level, the more cytotoxic the test material. The activities of the crystallized compounds isolated above are reported below in Table III.

[3] = tested on: lymphocytic leukemia P388; test: PS system against lymphocytic leukemia P388 in mice (NCI Protocol 1.200); format: in vivo; conditions: i.p. once a day for 9 days
Experimental: Another indication of fraction activity is the effectiveness in the PS system against lymphocytic leukemia P388 in mice. These assays are conducted according to the NCI Protocol 1.200 described in Geran et al., supra. Starting 24 hours after the tumor implantation, previously determined doses of each compound were injected intraperitoneally once a day for 9 days. Survival time of treated leukemic mice is compared to that of untreated mice (T/C×100). A T/C value of 100% indicates no activity. A T/C value greater than 100% means that the treated mice are surviving longer than the control mice. A compound giving a T/C value greater than 125% is indicative of activity as defined by the NCI Protocols, above.

[4] = tested on: B16 melancarcinoma; test: B1 system against B16 melancarcinoma in mice (NCI Protocol 1.300); format: in vivo; conditions: i.p. once a day for 9 days, vehicle Klucel, male B6C3F1 mice
Experimental: Trewiasine was also evaluated in the B1 system against B16 melancarcinoma in mice. This assay is conducted in accordance with the NCI Protocol 1.300 described in Geran et al., supra. Starting 24 hours after the tumor implantation, predetermined doses of the compound were injected intraperitoneally once a day for 9 days. The results are reported in Table V below as the percent T/C.

## COc1cc2cc(c1Cl)N(C)C(=O)CC(OC(=O)C(C)N(C)C(=O)C(C)C)C1(C)OC1C(C)C1CC(O)(NC(=O)O1)C(OC)C=CC=C(C)C2OC(C)=O (stereo not drawn) [colubrinol acetate]
[1]
  activity against lymphocytic leukemia P388: activity against lymphocytic leukemia P388 at the microgram per kilogram level

## COc1cc2cc(c1Cl)N(C)C(=O)CC(OC(=O)C(C)N(C)C(=O)C(C)C)C1(C)OC1C(C)C1CC(O)(NC(=O)O1)C(OC)C=CC=C(C)C2O (stereo not drawn) [colubrinol]
[1]
  activity against lymphocytic leukemia P388: activity against lymphocytic leukemia P388 at the microgram per kilogram level

## C=C(C)C(=O)N(C)C(C)C(=O)OC1CC(=O)N(C)c2cc(cc(OC)c2Cl)C(OC)C(C)=CC=CC(OC)C2(O)CC(OC(=O)N2)C(C)C2OC12C (stereo not drawn) [dehydrotrewiasine]
[2]
  IC50: < 10 ng/mL
[3]; 4.00 μg./kg./inj., vehicle biological saline, male CDF1 mice
  T/C: 120%
[3]; 8.00 μg./kg./inj., vehicle biological saline, male CDF1 mice
  T/C: 127%
[3]; 16.00 μg./kg./inj., vehicle biological saline, male CDF1 mice
  T/C: 120%
[3]; 32.00 μg./kg./inj., vehicle biological saline, male CDF1 mice
  T/C: 145%

## COc1cc2cc(c1Cl)N(C)C(=O)CC(OC(=O)C(C)NC(=O)C(C)C)C1(C)OC1C(C)C1CC(O)(NC(=O)O1)C(OC)C=CC=C(C)C2OC (stereo not drawn) [demethyltrewiasine]
[2]
  IC50: < 10 ng/mL

## COc1cc2cc(c1Cl)N(C)C(=O)CC(OC(=O)C(C)N(C)C(=O)C(C)C)C1(C)OC1C(C)C1CC(O)(NC(=O)O1)C(OC)C=CC=C(C)C2OC (stereo not drawn) [trewiasine, 15-methoxymaytanbutine]
[2]
  IC50: 0.2 ng/mL (≈ 0.267 nM)
[2]; KB system, compared with maytansine, maytanbutine and similar compounds
  cytotoxicity relative to that reported by Kupchan for other maytansinoids: one or more orders of magnitude less; also recorded: at least one order of magnitude less
[3]; 4.00 μg./kg./inj., vehicle Klucel, female CDF1 mice
  T/C: 163%
[3]; 8.00 μg./kg./inj., vehicle Klucel, female CDF1 mice
  T/C: 140%
[3]; 16.00 μg./kg./inj., vehicle Klucel, female CDF1 mice
  T/C: 154%
[3]; 32.00 μg./kg./inj., vehicle Klucel, female CDF1 mice
  T/C: 128%
[3]; 64.00 μg./kg./inj., vehicle Klucel, female CDF1 mice
  T/C: 91%
[4]; 1.00 μg./kg./inj.
  T/C: 133%
[4]; 2.00 μg./kg./inj.
  T/C: 140%
[4]; 4.00 μg./kg./inj.
  T/C: 157%
[4]; 8.00 μg./kg./inj.
  T/C: 185%
[4]; 16.00 μg./kg./inj.
  T/C: 172%
[4]; 32.00 μg./kg./inj.
  T/C: 183%
